Tests used:
Type in all cases: in vivo, human
[1] = Safety and tolerability: adverse events in the treatment-emergent period, part 1 of phase 2 trial in PD patients carrying a GBA mutation
From the text: This clinical trial is a 3-year, phase 2, randomised, double-blinded, placebo-controlled, multicenter study of Compound 2 in participants with early-stage PD carrying a GBA mutation. The trial is divided into 2 consecutive parts: part 1 is a dose escalation study (described below) of safety, pharmacokinetics, and pharmacodynamics of 3 doses using 3 sequential cohorts; part 2 is an ongoing 2-arm study of efficacy and safety of Compound 2.
Participants were randomised to 3 doses of once-daily orally administered Compound 2 or placebo, in sequential cohort design, and were followed up to 36 weeks (52 weeks for Japanese participants). Participants in the low-dose group received 4 mg of Compound 2 as a once daily oral dose; participants in the mid-dose group received 8 mg of Compound 2 a once daily oral dose; and participants in the high-dose group received 15 mg of Compound 2 a once daily oral dose.
The primary outcome in part 1 of trial was an assessment of safety and tolerability of orally administered Compound 2 versus placebo through Week 4 (primary analysis period for each sequential cohort). In addition, safety assessments were recorded for every 4 weeks until completion. Safety was assessed by physical examination; neurological examination; clinical laboratory evaluations conducted at a central laboratory, including haematology, biochemistry, urinalysis, and serology tests; vital signs; assessment of AEs and concomitant medication; ophthalmological examination; and electrocardiogram. AEs, serious Aes, and AEs of special interest (AESI) were recorded throughout the study. Serious AEs were defined as fatal, or life threatening, requiring or prolonging inpatient hospitalisation, or disabling/incapacitating, congenital anomalies, or medically important events (e.g. malignancies or chronic neurodegenerative diseases). AESI included new or worsening lens opacities and cataracts (as assessed by ophthalmology evaluations at screening and at Weeks 4, 12, 28, 36 [Weeks 4, 12, 36, 52 for Japanese participants]), pregnancy events, increase of alanine aminotransferase, or symptomatic overdose with study drug.
During the study, 29 participants were randomised to Compound 2 (Japan, n=9; ROW, n=13) or placebo (n=3; n=4). Eight (89%) Japanese and 12 (92%) ROW Compound 2-treated participants experienced ≥1 adverse event (AE) versus 2 (67%) and 4 (100%) participants from the respective placebo groups. […] Two Compound 2-treated ROW participants discontinued due to AEs (confusional state and panic attack).

glucosylceramide (GL-1) [2] = assay: Plasma glucosylceramide (GL-1) levels, pharmacodynamics
From the text: (§1) Analyses were based on all available data from participants who enrolled in part 1 of the trial and were randomised to receive either Compound 2 or placebo for up to 52 weeks for Japanese participants and 36 weeks for the ROW population. As part 1 was an exploratory, dose-escalation study, the sample size was not based on a statistical power calculation. Participants included in the primary safety analyses were those who were randomized and received at least one dose of Compound 2 or placebo. A data monitoring committee was responsible for overseeing the safety of patients and the risk/benefit ratio throughout the study. Duration of exposure to Compound 2 was different among the doses, as per the sequential cohort design, with the low- and high-dose cohorts commencing the study first and last, respectively. For pharmacokinetics, plasma parameters were calculated using noncompartmental methods, from plasma Compound 2 concentrations obtained after single dose administration. AUC0-24 and AUC0-48 were calculated using the trapezoidal method over a predefined time period of 24 hours or 48 hours, respectively. CLss/F was calculated using the following equation: CLss/F=Dose/AUCτ, where τ is the dosing interval. For pharmacodynamics, percent reduction of plasma or CSF GL-1 from baseline was calculated as (value−baseline)/baseline×100. Formal statistical testing was not conducted on MDS-UPDRS scale assessments.
(§2) In exploratory analyses, Compound 2 pharmacodynamics in plasma and CSF were assessed by mean percent change in GL-1 levels from baseline through Week 4. GL-1 levels were assessed in plasma and CSF samples collected at the day of randomisation and Week 4, with plasma GL-1 levels also assessed at Week 2.
(§3) Concentrations of GL-1 in plasma and CSF were determined using a liquid chromatography tandem mass spectrometry method. Secondary pharmacokinetic outcomes were evaluated over a 4-week period of once-daily Compound 2 dosing (Table 7).

glucosylceramide (GL-1) [3] = assay: CSF glucosylceramide (GL-1) levels, pharmacodynamics
From the text: as §1, §2, §3

[4] = Japan, High 15 mg once daily oral, n = 3
[5] = Japan, Low 4 mg once daily oral, n = 3
[6] = Japan, Mid 8 mg once daily oral, n = 3
[7] = ROW, High 15 mg once daily oral, n = 4
[8] = ROW, Low 4 mg once daily oral, n = 4
[9] = ROW, Mid 8 mg once daily oral, n = 5
[10] = Japanese cohort, high-dose 15 mg
[11] = Japanese cohort, medium-dose 8 mg
[12] = ROW participants, high-dose 15 mg
[13] = ROW participants, low-dose 4 mg
[14] = ROW participants, medium-dose 8 mg
[15] = ROW, High 15 mg once daily oral, n = 4, CSF sample not collected for 1 participant

## CC(C)(NC(=O)O[C@@H]1CN2CCC1CC2)c1csc(-c2ccc(F)cc2)n1 [Compound 2, (S)-quinuclidin-3-yl (2-(2-(4-fluorophenyl)thiazol-4-yl)propan-2-yl)carbamate]
[1]; [4]
  Number of participants with AEs: Infections and infestations: 1
[1]; [5]
  Number of participants with AEs: Infections and infestations: 2
[1]; [6]
  Number of participants with AEs: Infections and infestations: 0
[1]; [7]
  Number of participants with AEs: Infections and infestations: 1
[1]; [8]
  Number of participants with AEs: Infections and infestations: 0
[1]; [9]
  Number of participants with AEs: Infections and infestations: 0
[1]; all participants, part 1
  serious AEs or deaths: no serious AEs or deaths occurred
[1]; human, in vivo
  participants who discontinued due to AEs (confusional state and panic attack): Two
Glucosylceramide (GL-1) [2]; [4]
  Plasma GL-1, Week 2 (mean): 1.231 µg/mL
  Plasma GL-1, Week 2, Change from baseline (%) (mean): −77.2%
  Plasma GL-1, Week 2, Change from baseline (mean): -4.285 µg/mL
  Plasma GL-1, Week 4 (mean): 1.149 µg/mL
  Plasma GL-1, Week 4, Change from baseline (%) (mean): −79.3%
  Plasma GL-1, Week 4, Change from baseline (mean): -4.368 µg/mL
Glucosylceramide (GL-1) [2]; [5]
  Plasma GL-1, Week 2 (mean): 2.230 µg/mL
  Plasma GL-1, Week 2, Change from baseline (%) (mean): −63.6%
  Plasma GL-1, Week 2, Change from baseline (mean): -3.797 µg/mL
  Plasma GL-1, Week 4 (mean): 2.097 µg/mL
  Plasma GL-1, Week 4, Change from baseline (%) (mean): −66.1%
  Plasma GL-1, Week 4, Change from baseline (mean): -3.930 µg/mL
Glucosylceramide (GL-1) [2]; [6]
  Plasma GL-1, Week 2 (mean): 1.507 µg/mL
  Plasma GL-1, Week 2, Change from baseline (%) (mean): −67.5%
  Plasma GL-1, Week 2, Change from baseline (mean): -3.133 µg/mL
  Plasma GL-1, Week 4 (mean): 1.340 µg/mL
  Plasma GL-1, Week 4, Change from baseline (%) (mean): −70.7%
  Plasma GL-1, Week 4, Change from baseline (mean): -3.300 µg/mL
Glucosylceramide (GL-1) [2]; [10]
  mean reduction in plasma GL-1 at Week 4: 79.3%
Glucosylceramide (GL-1) [2]; Japanese cohort, low-dose 4 mg
  mean reduction in plasma GL-1 at Week 4: 66.1%
Glucosylceramide (GL-1) [2]; [11]
  mean reduction in plasma GL-1 at Week 4: 70.7%
Glucosylceramide (GL-1) [2]; [12]
  mean reduction in plasma GL-1 at Week 4: 77.7%
Glucosylceramide (GL-1) [2]; [13]
  mean reduction in plasma GL-1 at Week 4: 59.0%
Glucosylceramide (GL-1) [2]; [14]
  mean reduction in plasma GL-1 at Week 4: 71.0%
Glucosylceramide (GL-1) [2]; [7]
  Plasma GL-1, Week 2 (mean): 1.469 µg/mL
  Plasma GL-1, Week 2, Change from baseline (%) (mean): −73.9%
  Plasma GL-1, Week 2, Change from baseline (mean): -4.119 µg/mL
  Plasma GL-1, Week 4 (mean): 1.253 µg/mL
  Plasma GL-1, Week 4, Change from baseline (%) (mean): −77.7%
  Plasma GL-1, Week 4, Change from baseline (mean): -4.335 µg/mL
Glucosylceramide (GL-1) [2]; [8]
  Plasma GL-1, Week 2 (mean): 2.340 µg/mL
  Plasma GL-1, Week 2, Change from baseline (%) (mean): −54.3%
  Plasma GL-1, Week 2, Change from baseline (mean): -2.815 µg/mL
  Plasma GL-1, Week 4 (mean): 2.093 µg/mL
  Plasma GL-1, Week 4, Change from baseline (%) (mean): −59.0%
  Plasma GL-1, Week 4, Change from baseline (mean): -3.063 µg/mL
Glucosylceramide (GL-1) [2]; [9]
  Plasma GL-1, Week 2 (mean): 1.644 µg/mL
  Plasma GL-1, Week 2, Change from baseline (%) (mean): −69.9%
  Plasma GL-1, Week 2, Change from baseline (mean): -3.830 µg/mL
  Plasma GL-1, Week 4 (mean): 1.578 µg/mL
  Plasma GL-1, Week 4, Change from baseline (%) (mean): −71.0%
  Plasma GL-1, Week 4, Change from baseline (mean): -3.896 µg/mL
Glucosylceramide (GL-1) [2]; over 4 weeks
  decrease of plasma GL-1 levels from baseline versus dose: dose-dependent manner
Glucosylceramide (GL-1) [3]; [4]
  CSF GL-1, Week 4 (mean): 2.770 ng/mL
  CSF GL-1, Week 4, Change from baseline (%) (mean): −72.0%
  CSF GL-1, Week 4, Change from baseline (mean): -6.663 ng/mL
Glucosylceramide (GL-1) [3]; [5]
  CSF GL-1, Week 4 (mean): 3.843 ng/mL
  CSF GL-1, Week 4, Change from baseline (%) (mean): −21.7%
  CSF GL-1, Week 4, Change from baseline (mean): -1.733 ng/mL
Glucosylceramide (GL-1) [3]; [6]
  CSF GL-1, Week 4 (mean): 3.027 ng/mL
  CSF GL-1, Week 4, Change from baseline (%) (mean): −67.0%
  CSF GL-1, Week 4, Change from baseline (mean): -5.023 ng/mL
Glucosylceramide (GL-1) [3]; [10]
  mean reduction in CSF GL-1 at Week 4: 72.0%
Glucosylceramide (GL-1) [3]; Japanese cohort, low-dose 4 mg
  mean reduction in CSF GL-1 at Week 4: 21.7%
Glucosylceramide (GL-1) [3]; [11]
  mean reduction in CSF GL-1 at Week 4: 67.0%
Glucosylceramide (GL-1) [3]; [12]
  mean reduction in CSF GL-1 at Week 4: 74.3%
Glucosylceramide (GL-1) [3]; [13]
  mean reduction in CSF GL-1 at Week 4: 41.0%
Glucosylceramide (GL-1) [3]; [14]
  mean reduction in CSF GL-1 at Week 4: 58.0%
Glucosylceramide (GL-1) [3]; [15]
  CSF GL-1, Week 4 (mean): 1.623 ng/mL
  CSF GL-1, Week 4, Change from baseline (%) (mean): −74.3%
  CSF GL-1, Week 4, Change from baseline (mean): -5.250 ng/mL
Glucosylceramide (GL-1) [3]; [8]
  CSF GL-1, Week 4 (mean): 4.315 ng/mL
  CSF GL-1, Week 4, Change from baseline (%) (mean): −41.0%
  CSF GL-1, Week 4, Change from baseline (mean): -2.433 ng/mL
Glucosylceramide (GL-1) [3]; [9]
  CSF GL-1, Week 4 (mean): 4.406 ng/mL
  CSF GL-1, Week 4, Change from baseline (%) (mean): −58.0%
  CSF GL-1, Week 4, Change from baseline (mean): -6.376 ng/mL
Glucosylceramide (GL-1) [3]; highest dose (15 mg), Japanese and ROW cohorts
  decrease in CSF GL-1 levels from baseline: 72.0%-74.3%
Glucosylceramide (GL-1) [3]; oral administration, indicated by CSF GL-1 decrease
  brain penetration: brain-penetrant on oral administration
Glucosylceramide (GL-1) [3]; over 4 weeks
  decrease of CSF GL-1 levels from baseline versus dose: dose-dependent manner

— patent publication US20230372313A1, “METHODS FOR REDUCING GLYCOSPHINGOLIPID CONCENTRATION IN BRAIN TISSUE AND METHODS OF TREATMENT OF NEURODEGENERATIVE DISEASES INVOLVING THE SAME” (GENZYME CORPORATION, priority 2020, published 2023)
